Test results reported in patent publication US20230286973A1, “PROTEIN SECRETION INHIBITORS” (KEZAR LIFE SCIENCES, priority 2020, published 2023).

Tests used:
[1] = tested on: TNFα-FL/Gaussia Luciferase; test: Dox Induced TNFα-FL-Gluc Assay; assay type: cell-based; conditions: for IC50: 24 hr Dox induction, 293FRT/TO cells, read-out: 24 hr Dox Inducible TNFaFLGluc 293FRT/TO: Mean IC50; for 24 hr Dox Inducible TNFaFLGluc 293FRT/TO: TNF/PD1: ratio of TNFaFLGluc IC50 to PD1ssGluc IC50
Outline: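 Flp-In 293 T-REx cells stably carrying doxycycline-inducible full-length TNFα (aa 1-233) fused to Gaussia luciferase. Plated the day before, then treated with compound dilutions in doxycycline-containing medium at 37° C, 5% CO2.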

[2] = tested on: IL-2-FL/Gaussia Luciferase; test: Dox Induced IL2-FL-Gluc Assay; assay type: cell-based; conditions: for IC50: 24 hr Dox induction, 293FRT/TO cells, read-out: 24 hr Dox Inducible IL2FLGluc 293FRT/TO: Mean IC50; for 24 hr Dox Inducible IL2FLGluc 293FRT/TO: IL2/PD1: ratio of IL2FLGluc IC50 to PD1ssGluc IC50
Outline: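 Stable Flp-In 293 T-REx cells carrying doxycycline-inducible full-length IL-2 (aa 1-153) fused to Gaussia luciferase, plated the day before assay. Compound dilutions added in medium containing doxycycline, incubated at 37 °C, 5% CO2. Undefined stereocentres mean data refer to stereoisomer mixtures.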

[3] = tested on: multiple myeloma cell line NCI-H929; test: H929 Cell Viability Assay; assay type: cell-based, human; conditions: Homo sapiens, NCI-H929, 48 h, NCI-H929 cells, Celltiter-Glo
Outline: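 NCI-H929 cells in RPMI 1640 with 10% FBS were treated with compound dilutions for 48 h at 37° C, 5% CO2. Viability was read by CellTiter-Glo luminescence. Undefined stereocentres denote stereoisomer mixtures.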

[4] = Liver Microsome Stability Assay (mouse); conditions: mouse liver microsomes, with NADPH, 1.0 uM compound
Description: (§1) Stability of a compound was assessed in the presence of liver microsomes from various sources—mouse, rat, monkey and human liver microsomes. 1.0 uM compound, 0.4% DMSO in 0.1 M Potassium Phosphate with 1.0 mg/mL liver microsomes, were incubated at 37° C. with or without 1 mM NADPH. The samples were quenched at 0, and 30 minutes.

[5] = Liver Microsome Stability Assay (monkey); conditions: monkey liver microsomes, with NADPH, 1.0 uM compound
Description: as §1

[6] = tested on: PD1-ss+10aa/Gaussia Luciferase; test: Dox-Induced PD1-ss-Gluc Assay; assay type: cell-based; conditions: 24 hr Dox induction; 293FRT/TO cells; read-out: 24 hr Dox Inducible PD1ssGluc 293FRT/TO: Mean IC50
Outline: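 Compounds were added in DMSO/media with doxycycline and incubated at 37 °C, 5% CO2, on 293 T-REx cells plated one day earlier. These cells stably express, under tetracycline-regulated control, a Gaussia luciferase fused to the PD1 signal peptide plus 10 residues. Structures drawn without stereochemistry were tested as stereoisomer mixtures.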

[7] = tested on: HER3-ss+4aa/Gaussia Luciferase; test: Dox-Induced Her3-ss-Gluc Assay; assay type: cell-based; conditions: 24 hr Dox induction; 293FRT/TO cells; read-out: 24 hr Dox Inducible Her3(ss + 4)Gluc 293FRT/TO: Mean IC50
Excerpt: Flp-In 293 T-REx™ cells were transfected with pcDNA™5/FRT/TO plasmid inserted with cDNA encoding Gaussia Luciferase fused to the 3′ end of cDNA encoding HER3 signal sequence plus 4 amino acids (N-[…]-C) (SEQ ID NO: 2). Transfected cells were selected for resistance to the selectable markers Hygromycin and Blasticidin to create a stable cell line that contained the HER3-ss+4aa/Gaussia Luciferase cDNA insert whose expression was regulated under the T-REx™ system. The day before assay, cells were trypsinized and plated in 384-well tissue culture plates. The next day, compound dilutions in DMSO/media containing doxycycline were added to the wells and incubated at 37° C., 5% CO2.
For chemical structures that include one or more stereoisomers, but are illustrated without indicating stereochemistry, the assay data refers to a mixture of stereoisomers.

[8] = tested on: multiple myeloma cell line U266B1; test: U266 Cell Viability Assay; assay type: cell-based, human; conditions: Homo sapiens, U-266, 48 h, U266B1 cells, Celltiter-Glo
Outline: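 U266B1 multiple myeloma cells in RPMI 1640/10% FBS were treated with compound dilutions for 48 h at 37 °C, 5% CO2. Viability was measured by CellTiter-Glo luminescence; compounds drawn without stereochemistry were tested as stereoisomer mixtures.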

[9] = Liver Microsome Stability Assay (human); conditions: human liver microsomes, with NADPH, 1.0 uM compound
Description: as §1

[10] = Liver Microsome Stability Assay (rat); conditions: rat liver microsomes, with NADPH, 1.0 uM compound
Description: as §1

SMILES	IC50 [1] [µM]	24 hr Dox Inducible TNFaFLGluc 293FRT/TO: TNF/PD1 [1]	IC50 [2] [µM]	24 hr Dox Inducible IL2FLGluc 293FRT/TO: IL2/PD1 [2]	EC50 [3] [µM]	Liver Microsome Stability (Multiple Species): Mouse - % Remaining after 30 min w/NADPH [4] [%]	Liver Microsome Stability (Multiple Species): Monkey - % Remaining after 30 min w/NADPH [5] [%]	IC50 [6] [µM]	IC50 [7] [µM]	EC50 [8] [µM]	Liver Microsome Stability (Multiple Species): Human - % Remaining after 30 min w/NADPH [9] [%]	Liver Microsome Stability (Multiple Species): Rat - % Remaining after 30 min w/NADPH [10] [%]
CC(C)Oc1ccc(N2CCC[C@@H]2c2csc(NC(=O)c3cccn3Cc3ccncc3)n2)cc1 [Compound A5, (R)-N-(4-(1-(4-isopropoxyphenyl)pyrrolidin-2-yl)thiazol-2-yl)-1-(pyridin-4-ylmethyl)-1H-pyrrole-2-carboxamide]	0.087	5.92	0.0227	1.5	0.448	13	4.26	0.0147	0.0258	> 25	10.4	26.5
CC(=O)N1CCC(Oc2ccc(N3CCC[C@@H]3c3csc(NC(=O)c4cccn4Cc4ccncc4)n3)cc2)CC1 [Compound A7, (R)-N-(4-(1-(4-((1-acetylpiperidin-4-yl)oxy)phenyl)pyrrolidin-2-yl)thiazol-2-yl)-1-(pyridin-4-ylmethyl)-1H-pyrrole-2-carboxamide]	0.33	23.8	0.0356	2.6	0.497	39.9	3.56	0.0138	0.0252	> 25	4.64	5.67
CN1CCC(Oc2ccc(N3CCC[C@@H]3c3csc(NC(=O)c4cccn4Cc4ccncc4)n3)cc2)CC1 [Compound A8, (R)-N-(4-(1-(4-((1-methylpiperidin-4-yl)oxy)phenyl)pyrrolidin-2-yl)thiazol-2-yl)-1-(pyridin-4-ylmethyl)-1H-pyrrole-2-carboxamide]	13.4	45.5	0.806	2.7	2	3.14	11.3	0.293	0.588	2.94	3.14	11
CNc1ccc(N2CCC[C@@H]2c2csc(NC(=O)c3cccn3Cc3ccncc3)n2)cc1 [Compound A15]	0.875	25.6	0.0971	2.8	0.767	10.5	1.86	0.0342	0.0725	7.35	5.24	17.7
CN(C)c1ccc(N2CCC[C@@H]2c2csc(NC(=O)c3cccn3Cc3ccncc3)n2)cc1 [Compound A16, (R)-N-(4-(1-(4-(dimethylamino)phenyl)pyrrolidin-2-yl)thiazol-2-yl)-1-(pyridin-4-ylmethyl)-1H-pyrrole-2-carboxamide]	0.127	25	0.0106	2.1	0.119	0.26	0.17	0.00506	0.00837	2.14	0.34	0.15
CNC(=O)c1ccc(N2CCC[C@@H]2c2csc(NC(=O)c3cccn3Cc3ccncc3)n2)cc1 [Compound A17, (R)-N-(4-(1-(4-(methylcarbamoyl)phenyl)pyrrolidin-2-yl)thiazol-2-yl)-1-(pyridin-4-ylmethyl)-1H-pyrrole-2-carboxamide]	0.178	26.6	0.0167	2.5	0.161	2.94	0.22	0.00669	0.0115	> 25	0.32	0.38
CN(C)C(=O)c1ccc(N2CCC[C@@H]2c2csc(NC(=O)c3cccn3Cc3ccncc3)n2)cc1 [Compound A18, (R)-N-(4-(1-(4-(dimethylcarbamoyl)phenyl)pyrrolidin-2-yl)thiazol-2-yl)-1-(pyridin-4-ylmethyl)-1H-pyrrole-2-carboxamide]	1.02	15.9	0.145	2.3	1.58	3.75	0.08	0.0642	0.109	> 25	0.05	0.17
NC(=O)c1ccc(N2CCC[C@@H]2c2csc(NC(=O)c3cccn3Cc3ccncc3)n2)cc1 [Compound A19]	0.0453	18.4	0.00911	3.7	0.219	3.24	0.17	0.00246	0.00566	> 25	0.48	0.39
